Several values for one entry are separate records, joined by “and”; a condition that tells them apart may be missing. Identical values can stand only once. Inconclusive results and toxic doses are left out. Rule as the data show it: active = T/C of 150% or more; inactive = T/C below 125%.
Tested on: L1210 leukemia ip in BDF1 mice, survival T/C
Assay: NCI In Vivo Anticancer Drug Screen. Data for tumor model L1210 Leukemia (intraperitoneal) in B6D2F1 (BDF1) mice
Settings: endpoint: mean survival time, higher = longer survival
Summary of the method: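 In this screen, tumor-bearing mice given compound are compared to those given vehicle, and their survival values are reported as a treated-to-control quotient.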

[1] = dose: 100.0 mg/kg/injection, schedule: Q01DX001 (ip), vehicle: saline
[2] = dose: 200.0 mg/kg/injection, schedule: Q01DX001 (ip), vehicle: saline
[3] = dose: 400.0 mg/kg/injection, schedule: Q01DX001 (ip), vehicle: saline
[4] = dose: 100.0 mg/kg/injection, schedule: Q01DX001 (ip), vehicle: saline with Tween-80
[5] = dose: 200.0 mg/kg/injection, schedule: Q01DX001 (ip), vehicle: saline with Tween-80
[6] = dose: 25.0 mg/kg/injection, schedule: Q01DX009 (ip), vehicle: saline with Tween-80
[7] = dose: 25.0 mg/kg/injection, schedule: Q04DX003 (ip), vehicle: Klucel (hydroxypropylcellulose) (HPC)
[8] = dose: 50.0 mg/kg/injection, schedule: Q04DX003 (ip), vehicle: Klucel (hydroxypropylcellulose) (HPC)
[9] = dose: 100.0 mg/kg/injection, schedule: Q04DX003 (ip), vehicle: Klucel (hydroxypropylcellulose) (HPC)
[10] = dose: 100.0 mg/kg/injection, schedule: Q04DX003 (ip), vehicle: saline
[11] = dose: 200.0 mg/kg/injection, schedule: Q04DX003 (ip), vehicle: saline
[12] = dose: 400.0 mg/kg/injection, schedule: Q04DX003 (ip), vehicle: saline
[13] = dose: 25.0 mg/kg/injection, schedule: Q04DX003 (ip), vehicle: saline
[14] = dose: 100.0 mg/kg/injection, schedule: Q01DX009 (ip), vehicle: saline
[15] = dose: 200.0 mg/kg/injection, schedule: Q01DX009 (ip), vehicle: saline

Measured: T/C

N#CC(c1ccc(Cl)cc1)c1ccc(N(CCO)CCO)cc1 (configuration not stated)
inactive: [1] 99 % of control | dose: 100.0 mg/kg/injection, schedule: Q04DX003 (ip), vehicle: acetone 103 % of control | [2] 99 % of control | dose: 200.0 mg/kg/injection, schedule: Q04DX003 (ip), vehicle: acetone 97 % of control | [3] 86 % of control | dose: 400.0 mg/kg/injection, schedule: Q04DX003 (ip), vehicle: acetone 91 % of control

CCN=C(Nc1cccc(C2=NCCN2)c1)c1ccc(C(=NCC)Nc2cccc(C3=NCCN3)c2)cc1
inactive: dose: 2.0 mg/kg/injection, schedule: Q01DX Z (ip), vehicle: carboxymethylcellulose (CMC) 109 % of control | dose: 4.0 mg/kg/injection, schedule: Q01DX Z (ip), vehicle: carboxymethylcellulose (CMC) 95 % of control | dose: 8.0 mg/kg/injection, schedule: Q01DX Z (ip), vehicle: carboxymethylcellulose (CMC) 103 % of control | dose: 16.0 mg/kg/injection, schedule: Q01DX Z (ip), vehicle: carboxymethylcellulose (CMC) 107 % of control

c1ccc(CCCCCCCCCCc2ccccc2)cc1
inactive: [4] 91 % of control | [5] 95 % of control | dose: 400.0 mg/kg/injection, schedule: Q01DX001 (ip), vehicle: saline with Tween-80 98 % of control

Clc1c(Cl)c(Cl)c([S][Pb]([c]2ccccc2)([c]2ccccc2)[c]2ccccc2)c(Cl)c1Cl
inactive: dose: 6.25 mg/kg/injection, schedule: Q01DX009 (ip), vehicle: saline with Tween-80 101 % of control | dose: 12.5 mg/kg/injection, schedule: Q01DX009 (ip), vehicle: saline with Tween-80 103 % of control | [6] 104 % of control and 88 % of control | dose: 25.0 mg/kg/injection, schedule: Q04DX002 (ip), vehicle: saline with Tween-80 96 % of control | dose: 50.0 mg/kg/injection, schedule: Q04DX002 (ip), vehicle: saline with Tween-80 99 % of control | dose: 100.0 mg/kg/injection, schedule: Q04DX002 (ip), vehicle: saline with Tween-80 86 % of control and 88 % of control

Cc1c(C)c2cccc(C)c2[nH]c1=O
inactive: [1] 95 % of control | [2] 95 % of control | [3] 103 % of control

CNc1ccc(S(=O)(=O)c2ccc(NC)c([N+](=O)[O-])c2)cc1[N+](=O)[O-]
inactive: dose: 100.0 mg/kg/injection, schedule: Q01DX005 (ip), vehicle: gum acacia 93 % of control | dose: 100.0 mg/kg/injection, schedule: Q01DX009 (ip), vehicle: gum acacia 94 % of control | dose: 200.0 mg/kg/injection, schedule: Q01DX005 (ip), vehicle: gum acacia 93 % of control | dose: 200.0 mg/kg/injection, schedule: Q01DX009 (ip), vehicle: gum acacia 87 % of control | dose: 400.0 mg/kg/injection, schedule: Q01DX005 (ip), vehicle: gum acacia 96 % of control | dose: 400.0 mg/kg/injection, schedule: Q01DX009 (ip), vehicle: gum acacia 90 % of control

O=C(O)C(Cc1ccccc1)Cc1ccccc1
inactive: [1] 97 % of control | [2] 103 % of control | [3] 109 % of control

CCOC(=O)C1(C(=O)OCC)C(C)CC(O)N1C(=O)c1cc2c(cc1[N+](=O)[O-])OCO2 (configuration not stated)
inactive: [7] 94 % of control | [8] 94 % of control | [9] 89 % of control

NC(=O)c1ccc[n+](CC(=O)NCc2ccc(Cl)cc2)c1
inactive: [10] 93 % of control

COB(CCCCB(OC)OC)OC
inactive: dose: 100.0 mg/kg/injection, schedule: Q01DX009 (ip), vehicle: saline sonified 96 % of control | [10] 100 % of control | dose: 200.0 mg/kg/injection, schedule: Q01DX009 (ip), vehicle: saline sonified 92 % of control | [11] 107 % of control | dose: 400.0 mg/kg/injection, schedule: Q01DX009 (ip), vehicle: saline sonified 87 % of control | [12] 94 % of control

C=C(Br)CNS(C)(=O)=O
inactive: dose: 6.25 mg/kg/injection, schedule: Q01DX009 (ip), vehicle: saline 106 % of control | dose: 12.5 mg/kg/injection, schedule: Q01DX009 (ip), vehicle: saline 95 % of control | dose: 12.5 mg/kg/injection, schedule: Q04DX003 (ip), vehicle: saline 98 % of control | dose: 25.0 mg/kg/injection, schedule: Q01DX009 (ip), vehicle: saline 96 % of control | [13] 104 % of control

CCNCCn1cccc1
inactive: dose: 50.0 mg/kg/injection, schedule: Q01DX009 (ip), vehicle: saline 97 % of control | [14] 100 % of control | [10] 97 % of control | [15] 97 % of control | [11] 100 % of control

O=c1[nH]cc(CCOCc2ccccc2)c(=O)[nH]1
inactive: [1] 103 % of control | [2] 94 % of control | [3] 103 % of control

O=C(COc1ccccc1)Nc1cccc(C(=O)O)c1
inactive: [9] 104 % of control | dose: 200.0 mg/kg/injection, schedule: Q04DX003 (ip), vehicle: Klucel (hydroxypropylcellulose) (HPC) 93 % of control | dose: 400.0 mg/kg/injection, schedule: Q04DX003 (ip), vehicle: Klucel (hydroxypropylcellulose) (HPC) 109 % of control

O=c1[nH]cnc2nncnc12
inactive: dose: 50.0 mg/kg/injection, schedule: Q01DX001 (ip), vehicle: carboxymethylcellulose (CMC) 93 % of control

Nc1cccc(CC(=O)Nc2ccc(S(=O)(=O)F)cc2)c1
inactive: [1] 90 % of control | [2] 106 % of control | [3] 100 % of control

COC(=O)CCN1C(=O)c2ccccc2C1=O
inactive: [4] 110 % of control | [5] 102 % of control

O=C(O)c1ccc(Br)cc1
inactive: [10] 89 % of control | [11] 86 % of control

O=[N+]([O-])c1cc(C(F)(F)F)cc([N+](=O)[O-])c1N/N=C/c1ccc(F)cc1
inactive: [6] 87 % of control | dose: 50.0 mg/kg/injection, schedule: Q01DX009 (ip), vehicle: saline with Tween-80 94 % of control | dose: 100.0 mg/kg/injection, schedule: Q01DX009 (ip), vehicle: saline with Tween-80 92 % of control and 89 % of control | dose: 400.0 mg/kg/injection, schedule: Q01DX009 (ip), vehicle: saline with Tween-80 86 % of control

O=C(NCCCCCCCCNC(=O)N1CC1)N1CC1
inactive: dose: 0.19 mg/kg/injection, schedule: Q01DX009 (ip), vehicle: carboxymethylcellulose (CMC) 101 % of control | dose: 0.29 mg/kg/injection, schedule: Q01DX001 (ip), vehicle: carboxymethylcellulose (CMC) 98 % of control | dose: 0.29 mg/kg/injection, schedule: Q01DX009 (ip), vehicle: carboxymethylcellulose (CMC) 113 % of control | dose: 0.44 mg/kg/injection, schedule: Q01DX001 (ip), vehicle: carboxymethylcellulose (CMC) 95 % of control | dose: 0.44 mg/kg/injection, schedule: Q01DX009 (ip), vehicle: carboxymethylcellulose (CMC) 111 % of control | dose: 0.66 mg/kg/injection, schedule: Q01DX001 (ip), vehicle: carboxymethylcellulose (CMC) 96 % of control | dose: 0.66 mg/kg/injection, schedule: Q01DX009 (ip), vehicle: carboxymethylcellulose (CMC) 108 % of control | dose: 1.0 mg/kg/injection, schedule: Q01DX001 (ip), vehicle: carboxymethylcellulose (CMC) 101 % of control | dose: 1.0 mg/kg/injection, schedule: Q01DX009 (ip), vehicle: carboxymethylcellulose (CMC) 119 % of control | dose: 1.5 mg/kg/injection, schedule: Q01DX009 (ip), vehicle: carboxymethylcellulose (CMC) 109 % of control | dose: 2.25 mg/kg/injection, schedule: Q01DX009 (ip), vehicle: carboxymethylcellulose (CMC) 112 % of control | dose: 6.2 mg/kg/injection, schedule: Q01DX001 (ip), vehicle: carboxymethylcellulose (CMC) 102 % of control

CCC(O)(COC(N)=O)c1ccccc1 (configuration not stated)
inactive: dose: 100.0 mg/kg/injection, schedule: Q01DX001 (ip), vehicle: carboxymethylcellulose (CMC) 97 % of control | dose: 200.0 mg/kg/injection, schedule: Q01DX001 (ip), vehicle: carboxymethylcellulose (CMC) 108 % of control | dose: 400.0 mg/kg/injection, schedule: Q01DX001 (ip), vehicle: carboxymethylcellulose (CMC) 94 % of control

CCCOCC(O)CO (configuration not stated)
inactive: [14] 100 % of control | [10] 107 % of control | [15] 98 % of control | [11] 102 % of control | dose: 400.0 mg/kg/injection, schedule: Q01DX009 (ip), vehicle: saline 102 % of control | [12] 110 % of control

NC(=O)CCl
inactive: dose: 12.5 mg/kg/injection, schedule: Q04DX003 (ip), vehicle: Klucel (hydroxypropylcellulose) (HPC) 92 % of control | [7] 95 % of control | [13] 102 % of control | [8] 100 % of control | dose: 50.0 mg/kg/injection, schedule: Q04DX003 (ip), vehicle: saline 97 % of control | [9] 101 % of control | [10] 100 % of control
